These results are taken from ChEMBL document CHEMBL1770145, “Synthesis of 5(6)-dihydro-OSW-1 analogs bearing three kinds of disaccharides linking at 15-hydroxy and their antitumor activities” (Bioorg Med Chem Lett, 2011).

Where only a bound is given, the exact number is not on record here.

Common to all, as to type: functional, cell-based
Test [1] has as its system A549. Description: Cytotoxicity against human A549 cells by MTT assay.
The subject of test [2] is Bel-7402. Description: Cytotoxicity against human Bel7402 cells by MTT assay. (Formazan colour is commonly taken as a measure of viable cells.)
In test [3] the test system is BGC-823. The test can be described thus: Cytotoxicity against human BGC823 cells by MTT assay.
For test [4], the system named is A2780. Description: Cytotoxicity against human A2780 cells by MTT assay.
Test [5] relates to HCT-8. The test can be described thus: Cytotoxicity against human HCT8 cells by MTT assay.
Test [6] has as its system KETR3. The test can be described thus: Cytotoxicity against human Ketr3 cells by MTT assay.
Test [7] has as its system MCF7. The test can be described thus: Cytotoxicity against human MCF7 cells by MTT assay.
The subject of test [8] is AGS. Description: Cytotoxicity against human AGS cells.
In test [9] the test system is Bel-7402. The test can be described thus: Cytotoxicity against human Bel7402 cells.
Test [10] deals with MCF7. Description: Cytotoxicity against human MCF7 cells.

A word on the IC50: it is the concentration that inhibits the measured activity by half. Higher therefore signals a need for much substance. On to `COc1ccc(C(=O)O[C@H]2[C@H](O[C@@H]3[C@@H](OC(C)=O)[C@H](O[C@@H]4CC([C@H](C)C(=O)CC[C@@H](C)CO)[C@@]5(C)CC[C@H]6[C@@H](CC[C@H]7C[C@@H](O)CC[C@@]76C)[C@H]45)OC[C@@H]3O)OC[C@@H](O)[C@@H]2O)cc1` (stereo partly specified), for which the IC50 in test [1] came to 0.843 µM; in test [2], 0.522 µM; in [3], 0.283 µM; in test [4], 0.545 µM; in [5] it was 0.1 µM; in test [6], 0.1 µM. The midpoint of inhibition in [7], the IC50, lay at 0.499 µM.
Take `C[C@@H](CO)CCC(=O)[C@@H](C)C1C[C@@H](O[C@H]2O[C@H](CO)[C@@H](O)[C@H](O)[C@H]2O[C@@H]2O[C@@H](C)[C@H](O)[C@@H](O)[C@H]2O)[C@H]2[C@@H]3CC[C@H]4C[C@@H](O)CC[C@]4(C)[C@H]3CC[C@]12C` (stereo partly specified): the IC50 in test [1], in test [2], in test [3], in test [4], in [5] and in test [6] was > 10 µM throughout. Also, the IC50 in [7] was > 10 µM.
Regarding `COc1ccc(C(=O)O[C@H]2[C@H](O[C@@H]3[C@@H](OC(C)=O)[C@H](O[C@H]4CC([C@H](C)C(=O)CC[C@@H](C)CO)[C@@]5(C)CC[C@H]6[C@@H](CC[C@H]7C[C@@H](O)CC[C@@]76C)[C@H]45)OC[C@@H]3O)OC[C@@H](O)[C@@H]2O)cc1` (stereo partly specified), the IC50 in test [1], in test [2], in [3], in test [4], in [5] and in test [6] was > 10 µM each time. For the same molecule, in test [7], the IC50 was > 10 µM.
Take `C[C@@H](CO)CCC(=O)[C@@H](C)C1C[C@H](O[C@@H]2O[C@H](CO)[C@@H](O)[C@H](O)[C@H]2O[C@@H]2O[C@@H](C)[C@H](O)[C@@H](O)[C@H]2O)[C@H]2[C@@H]3CC[C@H]4C[C@@H](O)CC[C@]4(C)[C@H]3CC[C@]12C` (stereo partly specified): the IC50 in test [1], in [2], in test [3], in test [4], in test [5] and in test [6] was > 10 µM each time. Further, the IC50 in [7] was > 10 µM.
Regarding `COc1ccc(C(=O)O[C@H]2[C@H](O[C@H]3CO[C@@H](O[C@@H]4CC([C@H](C)C(=O)CC[C@@H](C)CO)[C@@]5(C)CC[C@H]6[C@@H](CC[C@H]7C[C@@H](O)CC[C@@]76C)[C@H]45)[C@H](OC(C)=O)[C@H]3O)OC[C@@H](O)[C@@H]2O)cc1` (stereo partly specified), the IC50 in test [1], in test [2], in test [3], in [4], in test [5] and in [6] was > 10 µM in each case. Moreover, in test [7], the IC50 was > 10 µM.
`COc1ccc(C(=O)O[C@H]2[C@H](O[C@H]3CO[C@@H](O[C@H]4CC([C@H](C)C(=O)CC[C@@H](C)CO)[C@@]5(C)CC[C@H]6[C@@H](CC[C@H]7C[C@@H](O)CC[C@@]76C)[C@H]45)[C@H](OC(C)=O)[C@H]3O)OC[C@@H](O)[C@@H]2O)cc1` (stereo partly specified): the IC50 in test [1], in test [2], in test [3], in test [4], in test [5] and in test [6] was > 10 µM throughout. In test [7], the concentration for half-maximal inhibition (IC50) is > 10 µM.
With `C[C@@H](CO)CCC(=O)[C@@H](C)C1C[C@H](O[C@H]2O[C@H](CO)[C@@H](O)[C@H](O)[C@H]2O[C@@H]2O[C@@H](C)[C@H](O)[C@@H](O)[C@H]2O)[C@H]2[C@@H]3CC[C@H]4C[C@@H](O)CC[C@]4(C)[C@H]3CC[C@]12C` (stereo partly specified), the IC50 in test [1], in test [2], in test [3], in test [4], in [5] and in [6] was > 10 µM in each case. Besides, the IC50 in [7] was > 10 µM.
Take `C[C@@H]1CC[C@@]2(OC1)O[C@H]1C[C@H]3[C@@H]4CC=C5C[C@@H](O[C@@H]6O[C@H](CO)[C@@H](O[C@@H]7O[C@@H](C)[C@H](O)[C@@H](O)[C@H]7O)[C@H](O)[C@H]6O[C@@H]6O[C@@H](C)[C@H](O)[C@@H](O)[C@H]6O)CC[C@]5(C)[C@H]4CC[C@]3(C)[C@H]1[C@@H]2C` [DIOSCIN]: the half-inhibitory concentration (IC50) in test [1] was determined as 0.454 µM; in [2] it was 0.93 µM; in [3] it was 0.268 µM; in test [4], 0.581 µM; in test [5] it was 0.351 µM; in test [6], 0.447 µM. Further, in test [7], the IC50 came out at 0.879 µM.
Consider `C[C@@H](CO)CCC(=O)[C@@H](C)C1C[C@@H](O[C@@H]2O[C@H](CO)[C@@H](O)[C@H](O)[C@H]2O[C@@H]2O[C@@H](C)[C@H](O)[C@@H](O)[C@H]2O)[C@H]2[C@@H]3CC[C@H]4C[C@@H](O)CC[C@]4(C)[C@H]3CC[C@]12C` (stereo partly specified), for which the IC50 in test [1], in [2], in test [3], in test [4], in test [5] and in test [6] was > 10 µM each time. In test [7], the IC50 is > 10 µM.
Regarding `COc1ccc(C(=O)O[C@H]2[C@H](O[C@@H]3[C@@H](OC(C)=O)[C@H](O[C@H]4C[C@H]5[C@@H]6CCC7C[C@@H](O)CC[C@]7(C)[C@H]6CC[C@]5(C)[C@@]4(O)[C@H](C)C(=O)CCC(C)C)OC[C@@H]3O)OC[C@@H](O)[C@@H]2O)cc1` (stereo partly specified), the IC50 in test [8] was 0.71 µM; in [9], 0.025 µM; in test [10], 0.029 µM.
